These results are taken from patent US4788188A, “Quinolylglycinamide derivatives, the process for preparation thereof and their therapeutic application as psychotropic drugs” (Sanofi (S.A.), priority 1985, dated 1988).

Where two headings read alike, the source gives them in different places.

Data set [1] can be described thus: Hypnotic activity (method of JANSEN). It is filed as in vivo, mice. The settings on record: 95% confidence interval (FINNEY); for ED50: Mus musculus, ip, read-out: 50% hypnotic dose (confidence interval). How it is done:
The hypnotic activity of the compounds of the present invention was assessed by the method of JANSEN (J. Med. Pharm. Chem., 1959, 1, 281).
After treatment i.p., each mouse is carefully placed on its back. […] In each batch (10 mice per dose), the percentage of sleeping animals is noted. The 50% hypnotic dose and its 95% confidence interval were calculated according to FINNEY's (1971) method.

Data set [2] can be described thus: Hypnotic activity (method of JANSEN). In kind it is in vivo, mice. The settings on record: 95% confidence interval (FINNEY); for 50% hypnotic dose (confidence interval): i.v.; for ED50: Mus musculus, iv, read-out: 50% hypnotic dose (confidence interval).
Data set [3] is described as follows: Acute toxicity in mice (oral). The settings on record: mouse, in vivo, oral administration. The text has this: The acute, chronic, sub-chronic and delayed toxicities were dealt with in this study. Performed on various animal species, the trials brought out the low toxicity and good tolerability of the derivatives of the invention.
For data set [4], the target named is benzodiazepine receptors. The data set can be described thus: Affinity for benzodiazepine receptors: inhibition of specific binding of [3H]flunitrazepam (WASTEK et al., modified). The arrangement: species or system rats. The settings on record: 50% inhibition of specific binding of [3H]flunitrazepam, rat brain membranes. Here is the method:
This study was performed according to the technique of WASTEK et al., (Europ. J. Pharmacol., 1978, 50, 445-447) slightly modified.
Rats are sacrificed by decapitation, and the brain is removed, ground, suspended, centrifuged and resuspended.
Samples of this suspension are incubated in the presence of [^3 H]flunitrazepam, alone or in the presence of increasing concentrations of the test compound.
The radioactivity bound on the membranes is then determined by liquid scintillation.
The concentration of product which 50% inhibits the specific binding of [^3 H]flunitrazepam (IC50) is thereby determined.

Data set [5] deals with pentetrazole seizures. The data set can be described thus: Anticonvulsant activity: protection against pentetrazole seizures (EVERETT and RICHARDS). It is filed as in vivo, mice. The settings on record: Mus musculus, po, 0.5 h, pentetrazole 125 mg/kg subcutaneously, no tonic seizures during 30 minutes, 95% confidence limits (FINNEY), read-out: ED50 (Confidence interval). How it is done: The protective effect produced by the compound of the inventon against pentetrazole seizures was studied.
This test was carried out according to the method of EVERETT and RICHARDS (J. Pharm. Exp. Ther., 1944, 81, 402-407). The test products and reference products were administered orally (suspended in gum arabic) to batches of 10 mice, 30 minutes […] pentetrazole (125 mg/kg subcutaneously).

Data set [6] relates to food neophobia. The data set can be described thus: Anxiolytic activity: food neophobia test. In kind it is in vivo, mice. The settings on record: dose 64 mg/kg, SC, 30 minutes after treatment. Here is the method: This activity was studied by the food neophobia test. In effect, a pronounced inhibition of the feed intake can be obtained in mice when both the food and the enclosure are unfamiliar to the aninal (R. J. STEPHENS, Brit. J. Pharmacol., 1973, 47, 145 P). All anxiolytics specifically counteract neophobia phenomena.
30 minutes after oral or subcutaneous treatment with the test derivatives and the reference products, the mice, fasted for 16 to 20 hours, are isolated in a translucent enclosure and placed in the presence of an unfamiliar food for 5 minutes.
The amounts consumed are evaluated in proportion to the weight of the animal.
In each batch, the mean consumption and also the percentage variation relative to the control batch are calculated in this manner.

The conditions of data set [7]: comparison, L. PIERI et al., Arzneim. Forsch., 1981; route not given; cited from earlier work.

As for `CCCN(CCC)C(=O)CNc1c(C(=O)OCC)cnc2ccc(Cl)cc12` [12 (Phosphate)], in data set [1], the ED50 was 38 mg/kg. Besides, the “50% hypnotic dose (confidence interval)” value in data set [2] is 2 (1-4) mg/kg.

Consider `CCCN(CCC)C(=O)CNc1c(C(=O)OCC)cnc2ccc(Cl)cc12` [12 (Sulphate)], for which the results for the “50% hypnotic dose (confidence interval)” value in data set [1] (i.p.) and in data set [2] were 30 (14-39) mg/kg and 6 (4-15) mg/kg, respectively.

One may read the LD50 as the dose expected to kill half of the subjects tested. Read a high LD50 as lower toxicity. Usually IC50 stands for the concentration that inhibits the measured activity by half. For the compound `CCOC(=O)c1cnc2ccc(Cl)cc2c1NCC(=O)N(CC)CC` [Derivative 1, 2-(3-Ethoxycarbonyl-6-chloro-4-quinolyl)amino-N,N-diethylacetamide], in data set [3], the LD50 came to 1800 mg/kg. Further, in data set [4], the IC50 was found to be 85 nM. Also, the ED50 in data set [5] is 49 mg/kg.

Compound `CCOC(=O)c1cnc2ccc(OC)cc2c1NCC(=O)N(CC)CC` [Derivative 3, 2-(3-Ethoxycarbonyl-6-methoxy-4-quinolyl)amino-N,N-diethylacetamide] yielded an LD50 in data set [3] of 1650 mg/kg. This compound returned an IC50 in data set [4] of 55 nM. The ED50 in data set [1] turned out to be 27 mg/kg; in data set [2], 7 mg/kg.

`CCOC(=O)c1cnc2ccc(C(F)(F)F)cc2c1NCC(=O)N(CC)CC` [Derivative 4, 2-(3-Ethoxycarbonyl-6-trifluoromethyl-4-quinolyl)amino-N,N-diethylacetamide] yielded an IC50 in data set [4] of 97 nM. For the same compound, the ED50 is 27 mg/kg in data set [1] and 5 mg/kg in data set [2].

As for `CCOC(=O)c1cnc2ccc([N+](=O)[O-])cc2c1NCC(=O)N(CC)CC` [Derivative 5, 2-(3-Ethoxycarbonyl-6-nitro-4-quinolyl)amino-N,N-diethylacetamide], the IC50 in data set [4] came to 97 nM. Moreover, the values for the ED50 in data set [5], in data set [1] and in data set [2] were 50 mg/kg, 25 mg/kg and 9 mg/kg, respectively.

In the case of `CCOC(=O)c1cnc2ccc(OCC)cc2c1NCC(=O)N(CC)CC` [Derivative 8], the IC50 in data set [4] worked out at 133 nM. Further, the ED50 in data set [1] came to 18 mg/kg; in data set [2], 5 mg/kg.

`CCCN(CCC)C(=O)CNc1c(C(=O)OCC)cnc2ccc(OC)cc12` [Derivative 14, 2-(3-Ethoxycarbonyl-6-methoxy-4-quinolyl)amino-N,N-dipropylacetamide]: the half-inhibitory concentration (IC50) in data set [4] was 17 nM. The ED50 is 40 mg/kg in data set [5], 25 mg/kg in data set [1] and 5 mg/kg in data set [2].

As for `CCOC(=O)c1cnc2ccc(OCC)cc2c1NCC(=O)N1CCCCC1` [Derivative 33, 1-{2-[(3-Ethoxycarbonyl-6-ethoxy-4-quinolyl)amino]acetyl}piperidine], in data set [4], the half-maximal inhibitory concentration (IC50) was 54 nM. Moreover, the ED50 in data set [1] worked out at 15 mg/kg; in data set [2], 5 mg/kg.

As to `CCOC(=O)c1cnc2ccc(Cl)cc2c1NCC(=O)N1CCCC(C)C1` (stereo not shown) [Derivative 38, 1-{2-[(3-Ethoxycarbonyl-6-chloro-4-quinolyl)amino]acetyl}-3-methylpiperidine], in data set [4], the IC50 is 65 nM. The ED50 in data set [5] is 46 mg/kg; in data set [1], 28 mg/kg; in data set [2], 9 mg/kg.

The compound `CCN(CC)C(=O)CNc1c(C(=O)O)cnc2ccc(Cl)cc12` [Derivative 43, 2-(3-Carboxy-6-chloro-4-quinolyl)amino-N,N-diethylacetamide] had an LD50 in data set [3] of 2200 mg/kg. In data set [4], this compound returned an IC50 of 7 nM. In addition, the “Percentage increase (food consumption relative to control batch)” value in data set [6] is 75%.

`Cc1ncc2n1-c1ccc(Cl)cc1C(c1ccccc1F)=NC2` [midazolam]: the 50% hypnotic dose in data set [7] is given as 23 mg/kg.

As to `CCCC(C)C1(CC)C(=O)NC(=S)NC1=O` (stereo not shown) [thiopental sodium], the 50% hypnotic dose in data set [7] is reported as 17 mg/kg.
